Experimental data from US7838674B2, “Tetracyclic lactame derivatives” (Novartis AG, priority 2007, dated 2010).
Where a name gives a salt, the structure may show the parent alone.

target: T1, MAPKAPK2 enzyme (HIS-MK2, Invitrogen PV4019) (Homo sapiens, UniProt P49137); experiment: Alternative MAPKAPK2 assay (Caliper microfluidic mobility shift, HSP27-peptide); format: biochemical; settings: HIS-MK2 0.013 nM, ATP 10 μM, 60 min at 30° C.
T1 construct: His; purchased Invitrogen PV4019
T1 sequence (P49137 whole entry): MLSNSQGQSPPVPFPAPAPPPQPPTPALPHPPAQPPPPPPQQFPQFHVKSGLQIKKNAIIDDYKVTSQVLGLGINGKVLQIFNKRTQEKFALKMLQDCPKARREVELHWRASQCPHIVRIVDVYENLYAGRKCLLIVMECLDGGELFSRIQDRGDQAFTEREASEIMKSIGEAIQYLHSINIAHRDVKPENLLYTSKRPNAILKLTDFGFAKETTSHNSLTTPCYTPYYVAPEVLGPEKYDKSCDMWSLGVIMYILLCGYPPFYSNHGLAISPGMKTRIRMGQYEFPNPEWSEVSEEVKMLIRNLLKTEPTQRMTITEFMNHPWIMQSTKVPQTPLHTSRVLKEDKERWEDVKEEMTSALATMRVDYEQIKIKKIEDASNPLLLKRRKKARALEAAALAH

IC50	SMILES
86 nM	CN1CC2(CNC(=O)c3c4c(n(C)c32)-c2cc(-c3ccc(F)nc3)ncc2CC4)C1 [Example 161, 2-(3-Aminomethyl-1-methyl-azetidin-3-yl)-8-(6-fluoro-pyridin-3-yl)-1-methyl-4,5-dihydro-1H-pyrrolo[2,3-f]isoquinoline-3-carboxylic acid lactam]
45 nM	Cn1c2c(c3c1-c1cc(-c4cccc(N5CCOCC5)c4)ncc1CC3)C(=O)NC1(CNC1)C2 [Example 146, 2-(3-Amino-azetidin-3-ylmethyl)-8-(3-morpholin-4-yl-phenyl)-1-methyl-4,5-dihydro-1H-pyrrolo[2,3-f]isoquinoline-3-carboxylic acid lactam hydrochloride]
< 3 nM	CC(C)Oc1ccc(-c2cc3c(cn2)CCc2c-3[nH]c3c2C(=O)NC2(CC2)C32CN(C)C2)cn1 [Example 254, 2-[3-(1-Amino-cyclopropyl)-1-methyl-azetidin-3-yl]-8-(6-isopropoxy-pyridin-3-yl)-4,5-dihydro-1H-pyrrolo[2,3-f]isoquinoline-3-carboxylic acid lactam]
< 3 nM	COc1ccc(-c2cc3c(cn2)CCc2c-3[nH]c3c2C(=O)NC2(CC2)C32CN(C)C2)cn1 [Example 255, 2-[3-(1-Amino-cyclopropyl)-1-methyl-azetidin-3-yl]-8-(6-methoxy-pyridin-3-yl)-4,5-dihydro-1H-pyrrolo[2,3-f]isoquinoline-3-carboxylic acid lactam]
34 nM	COc1ccc(-c2cc3c(cn2)CCc2c4c(n(C)c2-3)CC2(CN(C)C2)NC4=O)cn1 [Example 142, 2-(3-Amino-1-methyl-azetidin-3-ylmethyl)-8-(6-methoxy-pyridin-3-yl)-1-methyl-4,5-dihydro-1H-pyrrolo[2,3-f]isoquinoline-3-carboxylic acid lactam]
< 3 nM	O=C1NCC2(CNC2)c2[nH]c3c(c21)CCc1cnc(-c2ccc(Oc4ccc(F)cc4F)nc2)cc1-3 [Example 154, 2-(3-Aminomethyl-azetidin-3-yl)-8-[6-(2,4-difluoro-phenoxy)-pyridin-3-yl]-4,5-dihydro-1H-pyrrolo[2,3-f]isoquinoline-3-carboxylic acid lactam]
< 3 nM	CN1CC2(C1)c1[nH]c3c(c1C(=O)NC21CC1)CCc1cnc(-c2ccccc2F)cc1-3 [Example 256, 2-[3-(1-Amino-cyclopropyl)-1-methyl-azetidin-3-yl]-8-(2-fluoro-phenyl)-4,5-dihydro-1H-pyrrolo[2,3-f]isoquinoline-3-carboxylic acid lactam]
5 nM	Cc1ccc(-c2cc3c(cn2)CCc2c-3[nH]c3c2C(=O)NCC32CC2)cn1 [Example 111, 2-(1-Aminomethyl-cyclopropyl)-8-(6-methyl-pyridin-3-yl)-4,5-dihydro-1H-pyrrolo[2,3-f]isoquinoline-3-carboxylic acid lactam]
< 3 nM	CC(C)Oc1ccc(-c2cc3c(cn2)CCc2c-3[nH]c3c2C(=O)NCC32CNC2)cn1 [Example 186, 2-(3-Aminomethyl-azetidin-3-yl)-8-(6-isopropoxy-pyridin-3-yl)-4,5-dihydro-1H-pyrrolo[2,3-f]isoquinoline-3-carboxylic acid lactam hydrochloride]
< 3 nM	CN1CC2(C1)c1[nH]c3c(c1C(=O)NC21CC1)CCc1cnc(-c2ccc(OCCN4CCOCC4)cc2)cc1-3 [Example 259, 2-[3-(1-Amino-cyclopropyl)-1-methyl-azetidin-3-yl]-8-[4-(2-morpholin-4-yl-ethoxy)-phenyl]-4,5-dihydro-1H-pyrrolo[2,3-f]isoquinoline-3-carboxylic acid lactam]
41 nM	O=C1NCC2(CC2)c2[nH]c3c(c21)CCc1cnc(-c2ccc4c(c2)OCCO4)cc1-3 [Example 114]
< 3 nM	COc1ccc(-c2ncc3c(n2)-c2[nH]c4c(c2CC3)C(=O)NCC42CNC2)cc1 [Example 206, 2-(3-Aminomethyl-azetidin-3-yl)-8-(4-methoxy-phenyl)-4,5-dihydro-1H-1,7,9-triaza-cyclopenta[a]naphthalene-3-carboxylic acid lactam hydrochloride]
34 nM	Cn1c2c(c3c1C1(CNC1)CNC3=O)CCc1cnc(-c3cccc(F)c3)nc1-2 [Example 203, 2-(3-Aminomethyl-azetidin-3-yl)-8-(3-fluoro-phenyl)-1-methyl-4,5-dihydro-1H-1,7,9-triaza-cyclopenta[a]naphthalene-3-carboxylic acid lactam hydrochloride]
11 nM	CN1CCN(c2ccc(-c3cc4c(cn3)CCc3c-4[nH]c4c3C(=O)NCC43CC3)cn2)CC1 [Example 316, 2-[6-(4-Methyl-piperazin-1-yl)-pyridin-3-yl]-10-spirocyclopropyl-5,6,8,9,10,11-hexahydro-3,8,11-triaza-benzo[a]fluoren-7-one]
17 nM	Cn1c2c(c3c1-c1cc(-c4cccnc4)ncc1CC3)C(=O)NC1(CNC1)C2 [Example 153, 2-(3-Amino-azetidin-3-ylmethyl)-8-(pyridin-3-yl)-1-methyl-4,5-dihydro-1H-pyrrolo[2,3-f]isoquinoline-3-carboxylic acid lactam hydrochloride]
< 3 nM	CN1CC2(C1)c1[nH]c3c(c1C(=O)NC21CC1)CCc1cnc(-c2ccc(C(F)(F)F)nc2)cc1-3 [Example 222, 2-[3-(1-Amino-cyclopropyl)-1-methyl-azetidin-3-yl]-8-(6-trifluoromethyl-pyridin-3-yl)-4,5-dihydro-1H-pyrrolo[2,3-f]isoquinoline-3-carboxylic acid lactam]
22 nM	COc1ccc(-c2cc3c(cn2)CCc2c-3[nH]c3c2C(=O)NCC32CC2)cn1 [Example 54, 2-(1-Aminomethyl-cyclopropyl)-8-(6-methoxy-pyridin-3-yl)-4,5-dihydro-1H-pyrrolo[2,3-f]isoquinoline-3-carboxylic acid lactam]
15 nM	Cn1c2c(c3c1-c1cc(-c4ccncc4)ncc1CC3)C(=O)NC1(CNC1)C2 [Example 152, 2-(3-Amino-azetidin-3-ylmethyl)-8-(pyridin-4-yl)-1-methyl-4,5-dihydro-1H-pyrrolo[2,3-f]isoquinoline-3-carboxylic acid lactam hydrochloride]
18 nM	COc1ccc(-c2ncc3c(n2)-c2[nH]c4c(c2CC3)C(=O)NC2(CC2)C42CN(C)C2)cc1 [Example 215, 2-[3-(1-Amino-cyclopropyl)-1-methyl-azetidin-3-yl]-8-(4-methoxy-phenyl)-4,5-dihydro-1H-1,7,9-triaza-cyclopenta[a]naphthalene-3-carboxylic acid lactam]
75 nM	N#Cc1ccc(-c2cc3c(cn2)CCc2c-3[nH]c3c2C(=O)NC2(CC2)C3)cc1 [Example 60, 2-(1-Amino-cyclopropylmethyl)-8-(4-cyano-phenyl)-4,5-dihydro-1H-pyrrolo[2,3-f]isoquinoline-3-carboxylic acid lactam]
11 nM	O=C(NCc1ccccc1)c1cccc(-c2cc3c(cn2)CCc2c-3[nH]c3c2C(=O)NCC32CN(CC3CC3)C2)c1 [Example 261, 2-(3-Aminomethyl-1-cyclopropylmethyl-azetidin-3-yl)-8-(3-benzylcarbamoyl-phenyl)-4,5-dihydro-1H-pyrrolo[2,3-f]isoquinoline-3-carboxylic acid lactam]
89 nM	CN(C)c1ccc(-c2cc3c(cn2)CCc2c4c(n(C)c2-3)CC2(CNC2)NC4=O)cn1 [Example 147, 2-(3-Amino-azetidin-3-ylmethyl)-8-(6-dimethylamino-pyridin-3-yl)-1-methyl-4,5-dihydro-1H-pyrrolo[2,3-f]isoquinoline-3-carboxylic acid lactam hydrochloride]
65 nM	CC(C)Oc1ccc(-c2cc3c(cn2)CCc2c-3[nH]c3c2C(=O)NC2(CC2)C3)cn1 [Example 235, 2-(1-Amino-cyclopropylmethyl)-8-(6-isopropoxy-pyridin-3-yl)-4,5-dihydro-1H-pyrrolo[2,3-f]isoquinoline-3-carboxylic acid lactam]
< 3 nM	COc1ccc(-c2cc3c(cn2)CCc2c-3[nH]c3c2C(=O)NC2(CC2)C32CN(C)C2)cc1 [Example 225, 2-[3-(1-Amino-cyclopropyl)-1-methyl-azetidin-3-yl]-8-(4-methoxyphenyl)-4,5-dihydro-1H-pyrrolo[2,3-f]isoquinoline-3-carboxylic acid lactam]
68 nM	COc1ccc(-c2cc3c(cn2)CCc2c-3[nH]c3c2C(=O)NC2(CC2)C3)cc1F [Example 238, 2-(1-Amino-cyclopropylmethyl)-8-(3-fluoro-4-methoxy-phenyl)-4,5-dihydro-1H-pyrrolo[2,3-f]isoquinoline-3-carboxylic acid lactam]
35 nM	Cc1ccc(-c2cc3c(cn2)CCc2c-3[nH]c3c2C(=O)NC2(CC2)C3)cn1 [Example 69, 2-(1-Amino-cyclopropylmethyl)-8-(6-methyl-pyridin-3-yl)-4,5-dihydro-1H-pyrrolo[2,3-f]isoquinoline-3-carboxylic acid lactam]
46 nM	O=C1NC2(CC2)Cc2[nH]c3c(c21)CCc1cnc(-c2ccc(CN4CCCCC4)cc2)cc1-3 [Example 65, 2-(1-Amino-cyclopropylmethyl)-8-(4-piperidin-1-ylmethyl-phenyl)-4,5-dihydro-1H-pyrrolo[2,3-f]isoquinoline-3-carboxylic acid lactam]
86 nM	O=C(NCc1ccccc1)c1cncc(-c2ncc3c(n2)-c2[nH]c4c(c2CC3)C(=O)NCC42CC2)c1 [Example 290, N-Benzyl-5-(10-spirocyclopropyl-7-oxo-6,7,8,9,10,11-hexahydro-5H-1,3,8,11-tetraaza-benzo[a]fluoren-2-yl)-nicotinamide]
< 3 nM	CCN1CC2(C1)c1[nH]c3c(c1C(=O)NC21CC1)CCc1cnc(-c2ccc(OC(C)C)nc2)cc1-3 [Example 250]
67 nM	O=C1NC2(CCC2)Cc2[nH]c3c(c21)CCc1cnc(-c2cccnc2)cc1-3 [Example 104, 2-(1-Amino-cyclobutylmethyl)-8-pyridin-3-yl-4,5-dihydro-1H-pyrrolo[2,3-f]isoquinoline-3-carboxylic acid lactam]
